Experimental data: patent US4288590A, “7 -[Dα-(4-Hydroxy-1,5-naphthyridine-3-carboxamido)-α-arylacetam ido]-3-(N,N-dimethyl-aminomethylpyridinium) methyl-3-cephem-4-carboxylates” (Bristol-Myers Company, priority 1980, dated 1981)
Counter-ions that a name gives are not always drawn. Like-named read-outs stand apart in the source and are kept apart here.

Legend:
P. aeruginosa A21509 = experiment: In vivo efficacy, experimental infection in mice; conditions: Pseudomonas aeruginosa, A21509, in Mus musculus, im, 120 h, read-out: PD50 (median protective dose)
Description: (§2) The mice were treated with test compound by im route immediately after the bacterial challenge.

P. mirabilis (Gn-Ib) = experiment: In vitro activity, MIC of strain group (Table 2); format: cell-based; conditions: Proteus mirabilis, 2 strains, read-out: Geometric mean of MIC
Description: (§1) Minimum inhibitory concentrations (MIC) of BB-S 651, BB-S 669 and BB-S 676 were determined by serial two-fold agar dilution method using Steers' apparatus on Mueller-Hinton agar plate against 15 test organisms for primary screening as shown in Table 1.

S. aureus (Gp-Ia) = experiment: In vitro activity, MIC of strain group (Table 2); format: cell-based; conditions: Staphylococcus aureus, 12 strains, read-out: Geometric mean of MIC
Description: as §1

P. maltophilia = experiment: In vitro activity, MIC of strain group (Table 2); format: cell-based; conditions: Stenotrophomonas maltophilia; Gn-III P. maltophilia, 13 strains; read-out: Geometric mean of MIC
Description: as §1

E. coli (Gn-Ia) = experiment: In vitro activity, MIC of strain group (Table 2); format: cell-based; conditions: Escherichia coli, 7 strains, read-out: Geometric mean of MIC
Description: as §1

Indole(+) Proteus sp. = experiment: In vitro activity, MIC of strain group (Table 2); format: cell-based; conditions: Gn-II Indole(+) Proteus sp., 8 strains; read-out: Geometric mean of MIC
Description: as §1

E. coli (Gn-Ib) = experiment: In vitro activity, MIC of strain group (Table 2); format: cell-based; conditions: Escherichia coli, 13 strains, read-out: Geometric mean of MIC
Description: as §1

K. pneumoniae (Gn-Ia) = experiment: In vitro activity, MIC of strain group (Table 2); format: cell-based; conditions: Klebsiella pneumoniae, 10 strains, read-out: Geometric mean of MIC
Description: as §1

S. aureus (Gp-Ib) = experiment: In vitro activity, MIC of strain group (Table 2); format: cell-based; conditions: Staphylococcus aureus, 16 strains, read-out: Geometric mean of MIC
Description: as §1

P. mirabilis (Gn-Ia) = experiment: In vitro activity, MIC of strain group (Table 2); format: cell-based; conditions: Proteus mirabilis, 6 strains, read-out: Geometric mean of MIC
Description: as §1

P. cepacia = experiment: In vitro activity, MIC of strain group (Table 2); format: cell-based; conditions: Burkholderia cepacia; Gn-III P. cepacia, 4 strains; read-out: Geometric mean of MIC
Description: as §1

K. pneumoniae (Gn-Ib) = experiment: In vitro activity, MIC of strain group (Table 2); format: cell-based; conditions: Klebsiella pneumoniae, 5 strains, read-out: Geometric mean of MIC
Description: as §1

H. influenzae = experiment: In vitro activity, MIC of strain group (Table 2); format: cell-based; conditions: Haemophilus influenzae; Gn-IV H. influenzae, 4 strains; read-out: Geometric mean of MIC
Description: as §1

S. pyogenes = experiment: In vitro activity, MIC of strain group (Table 2); format: cell-based; conditions: Streptococcus pyogenes; Gp-II S. pyogenes, 10 strains; read-out: Geometric mean of MIC
Description: as §1

P. stuartii = experiment: In vitro activity, MIC of strain group (Table 2); format: cell-based; conditions: Providencia stuartii; Gn-II P. stuartii, 5 strains; read-out: Geometric mean of MIC
Description: as §1

P. putida = experiment: In vitro activity, MIC of strain group (Table 2); format: cell-based; conditions: Pseudomonas putida; Gn-III P. putida, 5 strains; read-out: Geometric mean of MIC
Description: as §1

S. pneumoniae = experiment: In vitro activity, MIC of strain group (Table 2); format: cell-based; conditions: Streptococcus pneumoniae; Gp-II S. pneumoniae, 9 strains; read-out: Geometric mean of MIC
Description: as §1

P. aeruginosa = experiment: In vitro activity, MIC of strain group (Table 2); format: cell-based; conditions: Pseudomonas aeruginosa; Gn-III P. aeruginosa, 32 strains; read-out: Geometric mean of MIC
Description: as §1

S. marcescens = experiment: In vitro activity, MIC of strain group (Table 2); format: cell-based; conditions: Serratia marcescens; Gn-II S. marcescens, 10 strains; read-out: Geometric mean of MIC
Description: as §1

Neisseria sp. = experiment: In vitro activity, MIC of strain group (Table 2); format: cell-based; conditions: Gn-IV Neisseria sp., 6 strains; read-out: Geometric mean of MIC
Description: as §1

[1] = Mouse blood levels after intramuscular administration (Table 3); format: in vivo; conditions: im, read-out: Blood level; for concentration at 0.25 h: 15'; for concentration at 0.5 h: 30'; for concentration at 1 h: 60'; for concentration at 2 h: 120'
Description: […] The blood samples were collected from the orbital sinuses into heparinized capillary tubes at 15, 30, 60 and 120 minutes after administration. The antibiotic concentration was determined by the paper disc-agar diffusion method using E. coli NIHJ or S. lutea PCI 1001 as the assay organism.

E. coli Juhl A15119 = experiment: In vivo efficacy, experimental infection in mice; conditions: Escherichia coli, JUHLA15119, in Mus musculus, im, 120 h, read-out: PD50 (median protective dose)
Description: as §2

S. pyogenes A20201 = experiment: In vivo efficacy, experimental infection in mice; conditions: Streptococcus pyogenes, A20201, in Mus musculus, im, 120 h, read-out: PD50 (median protective dose)
Description: as §2

K. pneumoniae A9977 = experiment: In vivo efficacy, experimental infection in mice; conditions: Klebsiella pneumoniae, A9977, in Mus musculus, im, 120 h, read-out: PD50 (median protective dose)
Description: as §2

P. aeruginosa A9843 = experiment: In vivo efficacy, experimental infection in mice; conditions: Pseudomonas aeruginosa, A9843, in Mus musculus, im, 120 h, read-out: PD50 (median protective dose)
Description: as §2

P. morganii A15153 = experiment: In vivo efficacy, experimental infection in mice; conditions: Morganella morganii, A15153, in Mus musculus, im, 120 h, read-out: PD50 (median protective dose)
Description: as §2

| Compound | ED50 (P. aeruginosa A21509) | MIC (P. mirabilis (Gn-Ib)) | MIC (S. aureus (Gp-Ia)) | MIC (P. maltophilia) | MIC (E. coli (Gn-Ia)) | MIC (Indole(+) Proteus sp.) | MIC (E. coli (Gn-Ib)) | MIC (K. pneumoniae (Gn-Ia)) | MIC (S. aureus (Gp-Ib)) | MIC (P. mirabilis (Gn-Ia)) | MIC (P. cepacia) | MIC (K. pneumoniae (Gn-Ib)) | MIC (H. influenzae) | MIC (S. pyogenes) | MIC (P. stuartii) | MIC (P. putida) | MIC (S. pneumoniae) | MIC (P. aeruginosa) | MIC (S. marcescens) | MIC (Neisseria sp.) | also measured |
| --- | --- | --- | --- | --- | --- | --- | --- | --- | --- | --- | --- | --- | --- | --- | --- | --- | --- | --- | --- | --- | --- |
| CN(C)Cc1ccc[n+](CC2=C(C(=O)[O-])N3C(=O)C(NC(=O)[C@H](NC(=O)c4cnc5cccnc5c4O)c4ccc(O)cc4)C3SC2)c1 (stereo partly drawn) [BB-S 651, 7-[D-α-(4-Hydroxy-1,5-naphthyridine-3-carboxamido)-α-(4-hydroxyphenyl)acetamido]-3-(3-N,N-dimethylaminomethylpyridinium)methyl-3-cephem-4-carboxylate Hydrochloride] | 3.2 mg/kg | > 100 µg/mL | 3.7 µg/mL | 14 µg/mL | 2.6 µg/mL | > 100 µg/mL | 29 µg/mL | 18 µg/mL | 42 µg/mL | > 100 µg/mL | 59 µg/mL | > 100 µg/mL | 0.8 µg/mL | 0.4 µg/mL | 1.6 µg/mL | 22 µg/mL | 0.8 µg/mL | 1.7 µg/mL | > 100 µg/mL | 1.6 µg/mL | concentration at 0.25 h ([1]; 10 mg/kg): 5000 ng/mL; concentration at 0.5 h ([1]; 10 mg/kg): 3000 ng/mL; concentration at 1 h ([1]; 10 mg/kg): < 400 ng/mL; concentration at 2 h ([1]; 10 mg/kg): < 400 ng/mL; concentration at 0.25 h ([1]; 20 mg/kg): 11000 ng/mL; concentration at 0.5 h ([1]; 20 mg/kg): 9000 ng/mL; concentration at 1 h ([1]; 20 mg/kg): 5000 ng/mL; concentration at 2 h ([1]; 20 mg/kg): < 400 ng/mL; concentration at 0.25 h ([1]; 40 mg/kg): 25000 ng/mL; concentration at 0.5 h ([1]; 40 mg/kg): 18000 ng/mL; concentration at 1 h ([1]; 40 mg/kg): 11000 ng/mL; concentration at 2 h ([1]; 40 mg/kg): 3000 ng/mL; ED50 (E. coli Juhl A15119): 1.9 mg/kg; ED50 (S. pyogenes A20201): 1.1 mg/kg; ED50 (K. pneumoniae A9977): 7.4 mg/kg; ED50 (P. aeruginosa A9843): 1.9 mg/kg; ED50 (P. morganii A15153): > 100 mg/kg |
| CCN1CCN(C(=O)N[C@@H](C(=O)N[C@@H]2C(=O)N3C(C(=O)O)=C(CSc4nnnn4C)CS[C@H]23)c2ccc(O)cc2)C(=O)C1=O [Cefoperazone, reference compound] | 30 mg/kg | 12.5 µg/mL | 1.6 µg/mL | 47 µg/mL | 0.2 µg/mL | 3.5 µg/mL | 3.7 µg/mL | 0.9 µg/mL | 17 µg/mL | 0.8 µg/mL | > 100 µg/mL | 100 µg/mL | 0.8 µg/mL | 0.2 µg/mL | 0.8 µg/mL | > 100 µg/mL | 0.8 µg/mL | 11 µg/mL | 47 µg/mL | 0.8 µg/mL | concentration at 0.25 h ([1]; 10 mg/kg): 3500 ng/mL; concentration at 0.5 h ([1]; 10 mg/kg): 1800 ng/mL; concentration at 1 h ([1]; 10 mg/kg): < 400 ng/mL; concentration at 2 h ([1]; 10 mg/kg): < 400 ng/mL; concentration at 0.25 h ([1]; 20 mg/kg): 9000 ng/mL; concentration at 0.5 h ([1]; 20 mg/kg): 5500 ng/mL; concentration at 1 h ([1]; 20 mg/kg): 1300 ng/mL; concentration at 2 h ([1]; 20 mg/kg): < 400 ng/mL; concentration at 0.25 h ([1]; 40 mg/kg): 19000 ng/mL; concentration at 0.5 h ([1]; 40 mg/kg): 14000 ng/mL; concentration at 1 h ([1]; 40 mg/kg): 2500 ng/mL; concentration at 2 h ([1]; 40 mg/kg): < 400 ng/mL; ED50 (E. coli Juhl A15119): 1.1 mg/kg; ED50 (S. pyogenes A20201): 2.5 mg/kg; ED50 (K. pneumoniae A9977): 0.6 mg/kg; ED50 (P. aeruginosa A9843): 20 mg/kg; ED50 (P. morganii A15153): 6.3 mg/kg |
